“And” between values parts separate entries of the source, which are not always exact repeats. Equal values may be shown once. Read-outs that look alike come from different tables or passages of the source.
What was measured:
Assay type in all cases: cell-based
kinases in BCWM.1 cells [1] = target: kinases in BCWM.1 cells (Homo sapiens, UniProt O14733); conditions: MAP2K7; Lys2; 1 μM; GF
Procedure: (§1) The cells were harvested and lysed. […] Bound kinases were identified and quantitated by ACTIVX as described in Patricelli et al., Biochemistry, 2007, 46(2): 350-358. The compounds were tested in duplicates against duplicate or quadruplicate control samples.

kinases in BCWM.1 cells [2] = target: kinases in BCWM.1 cells (Homo sapiens, UniProt Q9Y6R4); conditions: MAP3K4; Lys2; 1 μM; GF
Procedure: as §1

kinases in BCWM.1 cells [3] = target: kinases in BCWM.1 cells (Homo sapiens, UniProt Q9NWZ3); conditions: IRAK4; Lys2; 1 μM; GF
Procedure: as §1

kinases in BCWM.1 cells [4] = target: kinases in BCWM.1 cells (Homo sapiens, UniProt O75676); conditions: MSK2 domain1; Lys2; 1 μM; GF
Procedure: as §1

kinases in BCWM.1 cells [5] = target: kinases in BCWM.1 cells (Homo sapiens, UniProt P41743); conditions: PKCi; Lys1; 1 μM, 90 min; GF
Procedure: as §1

kinases in BCWM.1 cells [6] = target: kinases in BCWM.1 cells (Homo sapiens, UniProt P31749); conditions: AKT1; ATP Loop; 1 μM; GF
Procedure: as §1

kinases in BCWM.1 cells [7] = target: kinases in BCWM.1 cells (Homo sapiens, UniProt P50613); conditions: CDK7; Lys2; 1 μM; GF
Procedure: as §1

kinases in BCWM.1 cells [8] = target: kinases in BCWM.1 cells (Homo sapiens, UniProt O14936); conditions: CASK; Lys1; 1 μM; GF
Procedure: as §1

kinases in BCWM.1 cells [9] = target: kinases in BCWM.1 cells (Homo sapiens, UniProt P41279); conditions: COT; ATP Loop; 1 μM; GF
Procedure: as §1

kinases in BCWM.1 cells [10] = target: kinases in BCWM.1 cells (Homo sapiens, UniProt Q9C0K7); conditions: STLK6; Lys1; 1 μM, 90 min; GF
Procedure: as §1

kinases in BCWM.1 cells [11] = target: kinases in BCWM.1 cells (Homo sapiens, UniProt Q13164); conditions: Erk5; Lys2; 1 μM; GF
Chain of kinases in BCWM.1 cells (Homo sapiens, UniProt Q13164) (Q13164 2-816 limits assumed): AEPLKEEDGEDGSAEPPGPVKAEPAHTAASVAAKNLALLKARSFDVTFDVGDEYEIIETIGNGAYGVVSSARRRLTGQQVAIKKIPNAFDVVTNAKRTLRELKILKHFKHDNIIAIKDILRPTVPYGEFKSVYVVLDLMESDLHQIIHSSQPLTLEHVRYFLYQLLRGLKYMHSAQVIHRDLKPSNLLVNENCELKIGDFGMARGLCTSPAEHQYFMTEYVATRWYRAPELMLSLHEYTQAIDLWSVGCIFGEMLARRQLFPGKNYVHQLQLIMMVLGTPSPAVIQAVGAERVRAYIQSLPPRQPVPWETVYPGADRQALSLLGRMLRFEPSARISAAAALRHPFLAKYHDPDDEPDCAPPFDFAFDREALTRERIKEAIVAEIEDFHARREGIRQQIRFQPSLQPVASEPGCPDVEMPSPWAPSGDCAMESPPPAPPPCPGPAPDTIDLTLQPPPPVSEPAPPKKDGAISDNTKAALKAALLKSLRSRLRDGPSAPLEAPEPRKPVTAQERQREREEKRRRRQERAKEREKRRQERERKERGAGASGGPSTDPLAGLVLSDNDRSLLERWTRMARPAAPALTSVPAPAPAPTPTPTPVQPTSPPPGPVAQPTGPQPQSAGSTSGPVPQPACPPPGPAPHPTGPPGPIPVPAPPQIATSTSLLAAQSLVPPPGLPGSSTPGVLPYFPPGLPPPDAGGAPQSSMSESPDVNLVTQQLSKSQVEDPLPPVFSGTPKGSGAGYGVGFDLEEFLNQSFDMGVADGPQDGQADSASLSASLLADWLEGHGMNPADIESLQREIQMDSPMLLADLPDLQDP
Procedure: as §1

kinases in BCWM.1 cells [12] = target: kinases in BCWM.1 cells (Homo sapiens, UniProt Q13233); conditions: MAP3K1; Lys2; 1 μM; GF
Chain of kinases in BCWM.1 cells (Homo sapiens, UniProt Q13233) (Q13233 2-1512 limits assumed): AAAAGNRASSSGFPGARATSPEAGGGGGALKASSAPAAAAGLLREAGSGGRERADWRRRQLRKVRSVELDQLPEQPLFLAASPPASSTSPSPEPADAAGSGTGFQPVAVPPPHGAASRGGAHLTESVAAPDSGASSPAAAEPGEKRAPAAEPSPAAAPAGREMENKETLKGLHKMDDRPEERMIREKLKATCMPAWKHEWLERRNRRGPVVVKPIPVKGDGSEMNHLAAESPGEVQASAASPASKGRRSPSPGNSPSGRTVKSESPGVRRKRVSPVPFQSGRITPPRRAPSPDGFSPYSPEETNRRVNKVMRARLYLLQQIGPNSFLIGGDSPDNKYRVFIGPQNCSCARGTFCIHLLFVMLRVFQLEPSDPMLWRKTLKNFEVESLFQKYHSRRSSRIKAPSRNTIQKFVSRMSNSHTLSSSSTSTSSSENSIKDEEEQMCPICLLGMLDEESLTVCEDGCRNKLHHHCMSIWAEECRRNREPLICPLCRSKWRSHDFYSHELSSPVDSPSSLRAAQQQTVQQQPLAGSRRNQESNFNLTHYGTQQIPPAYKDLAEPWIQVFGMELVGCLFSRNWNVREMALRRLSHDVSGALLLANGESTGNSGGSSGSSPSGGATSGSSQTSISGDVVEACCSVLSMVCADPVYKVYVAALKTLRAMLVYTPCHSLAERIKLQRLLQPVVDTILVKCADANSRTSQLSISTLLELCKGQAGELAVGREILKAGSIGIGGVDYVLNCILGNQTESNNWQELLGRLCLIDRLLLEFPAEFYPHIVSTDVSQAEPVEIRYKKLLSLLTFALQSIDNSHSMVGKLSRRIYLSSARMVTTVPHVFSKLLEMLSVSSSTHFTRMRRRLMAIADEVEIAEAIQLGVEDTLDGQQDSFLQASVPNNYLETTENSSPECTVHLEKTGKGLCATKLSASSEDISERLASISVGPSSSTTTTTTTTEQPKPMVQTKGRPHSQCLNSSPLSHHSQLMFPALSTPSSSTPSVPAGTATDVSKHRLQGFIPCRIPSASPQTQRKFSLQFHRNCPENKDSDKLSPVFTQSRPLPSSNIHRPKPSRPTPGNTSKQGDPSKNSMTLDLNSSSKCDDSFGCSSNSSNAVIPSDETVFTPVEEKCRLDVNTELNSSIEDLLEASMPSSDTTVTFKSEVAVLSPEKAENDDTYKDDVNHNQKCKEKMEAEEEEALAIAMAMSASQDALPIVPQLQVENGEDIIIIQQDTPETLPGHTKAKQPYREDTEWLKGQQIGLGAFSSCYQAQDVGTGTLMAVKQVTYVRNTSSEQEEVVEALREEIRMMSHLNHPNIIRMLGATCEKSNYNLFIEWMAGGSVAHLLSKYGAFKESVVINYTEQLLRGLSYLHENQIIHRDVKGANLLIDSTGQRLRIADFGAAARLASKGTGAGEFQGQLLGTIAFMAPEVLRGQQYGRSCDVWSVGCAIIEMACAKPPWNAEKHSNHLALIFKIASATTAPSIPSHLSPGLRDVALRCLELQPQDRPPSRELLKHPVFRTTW
Procedure: as §1

kinases in BCWM.1 cells [13] = target: kinases in BCWM.1 cells (Homo sapiens, UniProt Q8NB16); conditions: MLKL; Lys1; 1 μM; GF
Procedure: as §1

kinases in BCWM.1 cells [14] = target: kinases in BCWM.1 cells (Homo sapiens, UniProt Q9NRM7); conditions: LATS2; Lys2; 1 μM; GF
Procedure: as §1

kinases in BCWM.1 cells [15] = target: kinases in BCWM.1 cells (Homo sapiens, UniProt O95382); conditions: MAP3K6; Lys2; 1 μM; GF
Procedure: as §1

kinases in BCWM.1 cells [16] = target: kinases in BCWM.1 cells (Homo sapiens, UniProt P23458); conditions: 1 μM, GF
Procedure: as §1

kinases in BCWM.1 cells [17] = target: kinases in BCWM.1 cells (Homo sapiens, UniProt P29323); conditions: EphB2; Activation Loop; 1 μM; GF
Chain of kinases in BCWM.1 cells (Homo sapiens, UniProt P29323) (P29323 19-1055 limits assumed): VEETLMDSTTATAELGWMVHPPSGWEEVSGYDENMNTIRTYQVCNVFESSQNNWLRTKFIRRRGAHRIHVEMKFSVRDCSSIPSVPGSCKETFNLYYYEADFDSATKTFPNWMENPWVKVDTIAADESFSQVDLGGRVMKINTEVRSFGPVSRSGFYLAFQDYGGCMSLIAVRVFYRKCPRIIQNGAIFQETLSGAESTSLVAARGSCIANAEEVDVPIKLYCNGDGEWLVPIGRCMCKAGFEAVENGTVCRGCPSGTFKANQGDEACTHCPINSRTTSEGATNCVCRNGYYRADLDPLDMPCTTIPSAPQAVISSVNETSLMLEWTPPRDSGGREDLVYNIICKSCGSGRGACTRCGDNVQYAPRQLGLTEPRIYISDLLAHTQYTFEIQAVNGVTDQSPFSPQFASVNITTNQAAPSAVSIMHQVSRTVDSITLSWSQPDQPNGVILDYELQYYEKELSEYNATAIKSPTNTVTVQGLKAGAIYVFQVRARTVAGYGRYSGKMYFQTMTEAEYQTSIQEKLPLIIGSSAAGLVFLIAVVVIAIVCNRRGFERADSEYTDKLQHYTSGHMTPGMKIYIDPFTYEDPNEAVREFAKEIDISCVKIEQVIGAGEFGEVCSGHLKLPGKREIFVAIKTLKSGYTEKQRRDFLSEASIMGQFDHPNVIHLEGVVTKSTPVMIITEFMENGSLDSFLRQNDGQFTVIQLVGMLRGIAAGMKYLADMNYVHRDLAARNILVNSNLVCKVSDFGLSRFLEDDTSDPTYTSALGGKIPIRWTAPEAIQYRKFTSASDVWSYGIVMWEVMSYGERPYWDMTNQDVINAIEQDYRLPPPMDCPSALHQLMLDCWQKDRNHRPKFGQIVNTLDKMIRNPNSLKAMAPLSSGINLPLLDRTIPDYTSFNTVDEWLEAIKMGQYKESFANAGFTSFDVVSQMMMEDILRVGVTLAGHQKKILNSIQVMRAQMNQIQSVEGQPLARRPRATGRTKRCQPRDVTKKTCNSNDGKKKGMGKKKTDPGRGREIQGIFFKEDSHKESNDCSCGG
Procedure: as §1

kinases in BCWM.1 cells [18] = target: kinases in BCWM.1 cells (Homo sapiens, UniProt Q96RR4); conditions: CaMKK2; Lys2; 1 μM; GF
Chain of kinases in BCWM.1 cells (Homo sapiens, UniProt Q96RR4) (Q96RR4 2-588 limits assumed): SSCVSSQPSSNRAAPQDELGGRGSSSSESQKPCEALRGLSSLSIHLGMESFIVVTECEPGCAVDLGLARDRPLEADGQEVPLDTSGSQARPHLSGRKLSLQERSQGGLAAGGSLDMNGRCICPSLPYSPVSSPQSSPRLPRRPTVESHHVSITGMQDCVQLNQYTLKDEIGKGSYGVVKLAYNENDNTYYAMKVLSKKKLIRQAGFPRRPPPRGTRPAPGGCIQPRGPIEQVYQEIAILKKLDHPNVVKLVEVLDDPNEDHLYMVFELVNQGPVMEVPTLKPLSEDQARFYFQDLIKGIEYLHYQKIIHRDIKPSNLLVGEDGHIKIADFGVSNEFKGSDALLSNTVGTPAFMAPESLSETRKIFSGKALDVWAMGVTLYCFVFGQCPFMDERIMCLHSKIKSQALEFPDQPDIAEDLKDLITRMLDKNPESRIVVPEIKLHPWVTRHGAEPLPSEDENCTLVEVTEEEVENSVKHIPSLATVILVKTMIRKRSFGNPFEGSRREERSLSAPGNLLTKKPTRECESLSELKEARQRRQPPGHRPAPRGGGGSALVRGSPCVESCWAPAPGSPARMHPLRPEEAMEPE
Procedure: as §1

kinases in BCWM.1 cells [19] = target: kinases in BCWM.1 cells (Homo sapiens, UniProt P06493); conditions: CDC2; Protein Kinase Domain; 1 μM; GF
Procedure: as §1

kinases in BCWM.1 cells [20] = target: kinases in BCWM.1 cells (Homo sapiens, UniProt Q86UX6); conditions: YANK3; Lys2; 1 μM, 90 min; GF
Procedure: as §1

kinases in BCWM.1 cells [21] = target: kinases in BCWM.1 cells (Homo sapiens, UniProt O00418); conditions: eEF2K; ATP; 1 μM; GF
Procedure: as §1

kinases in BCWM.1 cells [22] = target: kinases in BCWM.1 cells (Homo sapiens, UniProt Q13418); conditions: ILK, 1 μM, GF
Procedure: as §1

kinases in BCWM.1 cells [23] = target: kinases in BCWM.1 cells (Homo sapiens, UniProt P19784); conditions: CK2a2; Lys2; 1 μM; GF
Procedure: as §1

kinases in BCWM.1 cells [24] = target: kinases in BCWM.1 cells (Homo sapiens, UniProt Q9P2K8); conditions: GCN2; Lys2; 1 μM; GF
Procedure: as §1

kinases in BCWM.1 cells [25] = target: kinases in BCWM.1 cells (Homo sapiens, UniProt Q9Y2U5); conditions: MAP3K2; Lys1; 1 μM; GF
Procedure: as §1

kinases in BCWM.1 cells [26] = target: kinases in BCWM.1 cells (Homo sapiens, UniProt P51956); conditions: NEK3; Activation Loop; 1 μM, 90 min; GF
Procedure: as §1

kinases in BCWM.1 cells [27] = target: kinases in BCWM.1 cells (Homo sapiens, UniProt P06241); conditions: FYN; Lys1; 1 μM; GF
Procedure: as §1

kinases in BCWM.1 cells [28] = target: kinases in BCWM.1 cells (Homo sapiens, UniProt Q14004)
Procedure: as §1

kinases in BCWM.1 cells [29] = target: kinases in BCWM.1 cells (Homo sapiens, UniProt P07948); conditions: LYN; Lys1; 1 μM; GF
Chain of kinases in BCWM.1 cells (Homo sapiens, UniProt P07948) (P07948 2-512 limits assumed): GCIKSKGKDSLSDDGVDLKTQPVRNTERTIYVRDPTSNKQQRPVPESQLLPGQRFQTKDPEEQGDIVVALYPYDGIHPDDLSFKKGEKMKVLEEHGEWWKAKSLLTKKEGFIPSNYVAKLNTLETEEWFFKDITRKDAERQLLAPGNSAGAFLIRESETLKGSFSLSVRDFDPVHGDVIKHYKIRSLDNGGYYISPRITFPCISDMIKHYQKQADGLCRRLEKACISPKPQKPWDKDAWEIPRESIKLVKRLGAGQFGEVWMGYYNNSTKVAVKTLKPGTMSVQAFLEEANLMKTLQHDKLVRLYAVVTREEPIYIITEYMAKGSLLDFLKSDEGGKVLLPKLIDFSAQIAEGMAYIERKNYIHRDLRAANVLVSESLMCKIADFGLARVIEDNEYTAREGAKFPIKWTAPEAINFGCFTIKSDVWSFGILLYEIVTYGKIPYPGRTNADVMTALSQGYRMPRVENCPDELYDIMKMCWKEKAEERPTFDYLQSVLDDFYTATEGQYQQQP
Procedure: as §1

kinases in BCWM.1 cells [30] = target: kinases in BCWM.1 cells (Homo sapiens, UniProt Q99755); conditions: PIP5K1A; ATP; 1 μM, 90 min; GF
Procedure: as §1

Chain of kinases in BCWM.1 cells (Homo sapiens, UniProt O14733) (O14733 2-419 limits assumed): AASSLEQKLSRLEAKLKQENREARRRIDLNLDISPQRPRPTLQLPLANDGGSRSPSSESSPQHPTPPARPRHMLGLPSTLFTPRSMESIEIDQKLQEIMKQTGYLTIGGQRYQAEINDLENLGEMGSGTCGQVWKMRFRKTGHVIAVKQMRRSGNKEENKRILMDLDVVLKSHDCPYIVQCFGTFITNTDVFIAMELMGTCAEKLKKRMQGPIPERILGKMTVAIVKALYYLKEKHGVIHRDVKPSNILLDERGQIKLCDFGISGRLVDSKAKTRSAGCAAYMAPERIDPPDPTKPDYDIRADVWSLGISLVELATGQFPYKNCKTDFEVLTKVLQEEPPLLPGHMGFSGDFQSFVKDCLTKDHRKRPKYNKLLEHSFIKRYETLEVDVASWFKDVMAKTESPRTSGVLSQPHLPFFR

## CCC(=O)N1CC[C@H](Nc2nccc(Nc3ncc(C(=O)Nc4c(C)cccc4C)s3)n2)C1 [Example I-9]
Kinases in BCWM.1 cells [1]
  % change of MS signal compared to control sample: −2.8% and −0.3%
Kinases in BCWM.1 cells [2]
  % change of MS signal compared to control sample: 3.2% and 10.9%
Kinases in BCWM.1 cells [3]
  % change of MS signal compared to control sample: −3.2% and 6.2%
Kinases in BCWM.1 cells [4]
  % change of MS signal compared to control sample: −27% and −18.7%
Kinases in BCWM.1 cells [5]
  % change of MS signal compared to control sample: 18.6%
Kinases in BCWM.1 cells [6]
  % change of MS signal compared to control sample: −25.1% and −16.8%
Kinases in BCWM.1 cells [7]
  % change of MS signal compared to control sample: 1.3% and 5.1%
Kinases in BCWM.1 cells [8]
  % change of MS signal compared to control sample: −10.4%
Kinases in BCWM.1 cells [9]
  % change of MS signal compared to control sample: −37.3% and −40.3%
Kinases in BCWM.1 cells [10]
  % change of MS signal compared to control sample: 4.8%
Kinases in BCWM.1 cells [11]
  % change of MS signal compared to control sample: −1.8% and 1.1%
Kinases in BCWM.1 cells [12]
  % change of MS signal compared to control sample: 11.1% and 9.8%
Kinases in BCWM.1 cells [13]
  % change of MS signal compared to control sample: −4.7% and −3.9%
Kinases in BCWM.1 cells [14]
  % change of MS signal compared to control sample: −12.3% and −5.1%
Kinases in BCWM.1 cells [15]
  % change of MS signal compared to control sample: −13.4% and −5%
Kinases in BCWM.1 cells [16]; JAK1, Protein Kinase Domain
  % change of MS signal compared to control sample: −11.5% and −6.7%
Kinases in BCWM.1 cells [16]; JAK1 domain2, Activation Loop
  % change of MS signal compared to control sample: −15.6% and −13.9%
Kinases in BCWM.1 cells [16]; JAK1 domain2, Lys1
  % change of MS signal compared to control sample: −18.1% and −14.4%
Kinases in BCWM.1 cells [17]
  % change of MS signal compared to control sample: 81.7% and 85.6%
Kinases in BCWM.1 cells [18]
  % change of MS signal compared to control sample: −4.9% and 0.5%
Kinases in BCWM.1 cells [19]
  % change of MS signal compared to control sample: −2.6% and −3.2%
Kinases in BCWM.1 cells [20]
  % change of MS signal compared to control sample: −13.2%
Kinases in BCWM.1 cells [21]
  % change of MS signal compared to control sample: −51.4% and −48.7%
Kinases in BCWM.1 cells [22]; Lys1
  % change of MS signal compared to control sample: −1.9% and 1.2%
Kinases in BCWM.1 cells [22]; Protein Kinase Domain
  % change of MS signal compared to control sample: 24.5% and 12.4%
Kinases in BCWM.1 cells [23]
  % change of MS signal compared to control sample: 7% and −1.8%
Kinases in BCWM.1 cells [24]
  % change of MS signal compared to control sample: −18.8% and −10.7%
Kinases in BCWM.1 cells [25]
  % change of MS signal compared to control sample: −16.2% and −8.3%
Kinases in BCWM.1 cells [26]
  % change of MS signal compared to control sample: −3.2%
Kinases in BCWM.1 cells [27]
  % change of MS signal compared to control sample: >91%
Kinases in BCWM.1 cells [28]
  % change of MS signal compared to control sample: 5.7% and 15.3%
Kinases in BCWM.1 cells [29]
  % change of MS signal compared to control sample: 85.2% and 94%

## C=CC(=O)N1CC[C@H](Nc2nccc(Nc3ncc(C(=O)Nc4c(C)cccc4C)s3)n2)C1 [Example I-3]
Kinases in BCWM.1 cells [30]
  % change of MS signal compared to control sample: 30.5%
